Measurements as given in patent US11834433B2, “Compounds” (INFLAZOME LIMITED, priority 2018, dated 2023).
Counter-ions that a name gives are not always drawn.

The compounds below were run on NLRP3 (assay: THP-1 cells pyroptosis assay (LPS + nigericin, resazurin read-out)). Conditions: Homo sapiens, 1 μg/ml LPS, 5 μM nigericin, NLRP3 inhibitory activity.
Format: cell-based
Experimental: THP-1 cells (ATCC #TIB-202) were grown in RPMI containing L-glutamine (Gibco #11835) supplemented with 1 mM sodium pyruvate (Sigma #S8636) and penicillin (100 units/ml)/streptomycin (0.1 mg/ml) (Sigma #P4333) in 10% Fetal Bovine Serum (FBS) (Sigma #F0804). The cells were routinely passaged and grown to confluency (˜10^6 cells/ml). On the day of the experiment, THP-1 cells were harvested and resuspended into RPMI medium (without FBS). The cells were then counted and viability (>90%) checked by Trypan blue (Sigma #T8154). Appropriate dilutions were made to give a concentration of 625,000 cells/ml. To this diluted cell solution was added LPS (Sigma #L4524) to give a 1 μg/ml Final Assay Concentration (FAC). 40 μl of the final preparation was aliquoted into each well of a 96-well plate. The plate thus prepared was used for compound screening. The following method step-by-step assay was followed for compound screening. • 1. Seed THP-1 cells (25,000 cells/well) containing 1.0 μg/ml LPS in 40 μl of RPMI medium (without FBS) in 96-well, black walled, clear bottom cell culture plates coated with poly-D-lysine (VWR #734-0317) • 2. Add 5 μl compound (8 points half-log dilution, with 10 μM top dose) or vehicle (DMSO 0.1% FAC) to the appropriate wells • 3. Incubate for 3 hrs at 37° C., 5% CO2 • 4. Add 5 μl nigericin (Sigma #N7143) (FAC 5 μM) to all wells • 5. Incubate for 1 hr at 37° C., 5% CO2 • 6. At the end of the incubation period, spin plates at 300×g for 3 mins and remove supernatant • 7. Then add 50 μl of resazurin (Sigma #R7017) (FAC 100 μM resazurin in RPMI medium without FBS) and incubate plates for a further 1-2 hrs at 37° C. and 5% CO2 • 8. Plates were read in an Envision reader at Ex 560 nm and Em 590 nm • 9. IC50 data is fitted to a non-linear regression equation (log inhibitor vs response-variable slope 4-parameters) [table]

Compound	IC50 [µM]
COC1(c2cc(S(=O)(=O)NC(=O)Cc3c4c(cc5c3CCC5)CCC4)nn2C(C)C)COC1 [Example 1, 2-(1,2,3,5,6,7-Hexahydro-s-indacen-4-yl)-N-((1-isopropyl-5-(3-methoxyoxetan-3-yl)-1H-pyrazol-3-yl)sulfonyl)acetamide]	≤ 5
COC1(c2cc(S(=O)(=O)NC(=O)Cc3c(-c4ccnc(C#N)c4)ccc4c3CCC4)nn2C(C)C)COC1 [Example 2, 2-(5-(2-Cyanopyridin-4-yl)-2,3-dihydro-1H-inden-4-yl)-N-((1-isopropyl-5-(3-methoxyoxetan-3-yl)-1H-pyrazol-3-yl)sulfonyl)acetamide, potassium Salt]	≤ 10
COC1(c2cc(S(=O)(=O)NC(=O)Cc3c4c(cc5c3CCC5)CCC4)nn2C2CC2)COC1 [Example 3, N-((1-Cyclopropyl-5-(3-methoxyoxetan-3-yl)-1H-pyrazol-3-yl)sulfonyl)-2-(1,2,3,5,6,7-hexahydro-s-indacen-4-yl)acetamide]	≤ 5
COC(C)(C)Cn1ccc(S(=O)(=O)NC(=O)Cc2c3c(cc4c2CCC4)CCC3)n1 [Example 4, 2-(1,2,3,5,6,7-Hexahydro-s-indacen-4-yl)-N-((1-(2-methoxy-2-methylpropyl)-1H-pyrazol-3-yl)sulfonyl)acetamide]	≤ 5
COC1(c2cc(S(=O)(=O)NC(=O)Cc3c(C(C)C)cc(F)cc3C(C)C)nn2C(C)C)COC1 [Example 5, 2-(4-Fluoro-2,6-diisopropylphenyl)-N-((1-isopropyl-5-(3-methoxyoxetan-3-yl)-1H-pyrazol-3-yl)sulfonyl)acetamide]	≤ 5
CC(C)c1cc(F)cc(C(C)C)c1CC(=O)NS(=O)(=O)c1ccn(C[C@@H](C)O)n1 [Example 6, (R)-2-(4-Fluoro-2,6-diisopropylphenyl)-N-((1-(2-hydroxypropyl)-1H-pyrazol-3-yl)sulfonyl)acetamide]	≤ 5
COc1cc(-c2cc(F)cc(C(C)C)c2CC(=O)NS(=O)(=O)c2cnn(CC(C)(C)O)c2)ccn1 [Example 7]	≤ 5
COCC(C)(C)n1ccc(S(=O)(=O)NC(=O)Cc2c(-c3ccnc(OC)c3)cc(F)cc2C(C)C)n1 [Example 8]	≤ 5
COc1cc(-c2cc(F)cc(C(C)C)c2CC(=O)NS(=O)(=O)c2ccn(C(C)(C)CO)n2)ccn1 [Example 9]	≤ 5
